Laboratory results from US20070054841A1, “Method of treatment of systemic injury secondary to burns” (The University of Queensland, priority 2003, published 2007).
Entries after “also recorded” stand apart in the source; their conditions may differ.

Key:
[1] = PMX53 concentration remaining after incubation with Acticoat dressing (HPLC); type: physicochemical; settings: throughout the experiment (up to 7 days, 37° C.)
Protocol: (§1) Uniformly sized segments of the Acticoat dressing (10 mm diameter) were incubated in 7 ml PMX53 solution (1.0 mM in sterile water) or sterile water alone at 37° C. for periods of up to 7 days. The segments were then removed and examined using scanning electron microscopy to determine if the silver coating was affected.
An analysis of the concentration of PMX53 remaining in the incubation solutions was performed by high performance liquid chromatography to ascertain if the concentration of PMX53 remained constant throughout the incubation period. PMX53 solution was incubated at 37° C. without a dressing to act as a control.

[2] = Interaction with silver coated Acticoat dressing: silver ion leaching and surface by scanning electron microscopy; type: physicochemical
Protocol: as §1
A quantitative assessment of the effect of PMX53 on silver ion leaching was performed by determining the concentration of silver ions in each solution after the incubation described above for 1, 3, 5 and 7 days. Silver ion determination was performed using a Spectroflame model P ICPAES instrument.

[3] = tested on: T-cell dependent antigen responses; settings: rat, in vivo, po, 100 mg/kg/day
[4] = tested on: rats with full thickness skin burn; assay: Rat thermal skin burn (30% of skin area): Evans Blue leakage and macroscopic appearance of lung; type: in vivo, Female Wistar rats
Protocol: Female Wistar rats of body weight 250-300 grams were used in this study. The rats were divided into three groups: PMX53 treatment involved a subcutaneous injection of PMX53 in distilled water at a dose of 10 mg/kg 30 minutes before the burn. With the rats under deep anaesthesia, a closely-clipped area of skin on the back equivalent to 30% of total skin area was exposed to water at a temperature of 75° C. for 30 seconds. […] To prevent rapid death from the burn, rats were immediately treated with an intraperitoneal infusion of 8-10 ml normal saline. At the same time Evans Blue (EB) at a concentration of 20 mg/kg was injected via the femoral vein. The rats were then kept on a heating pad to maintain normal body temperature, and monitored for 4 hours. Anaesthetic was topped up as required. At the end of the experiment, 1-2 ml of blood was taken and the serum/plasma stored at −20° C., for subsequent assay of serum TNF-α levels. The leakage of EB/albumin from the blood vessels into the subcutaneous tissue was estimated by examining photographs of skin samples.

[5] = tested on: rats with second degree burns; type: in vivo, Female Wistar rats; settings: topical 400 μg/spot immediately after burn; 6 hours after burn
Protocol: The inhibitory effect of topically applied PMX53 on neutrophil infiltration following a burn was examined after a 6 hour period. In order to verify any effect of PMX53 on the immune system, immunoglobulin […] (IgG) levels were examined. IgM levels can be examined using similar methods. Female Wistar rats of body weight about 250 grams were used in this study. A total of nine rats were used in the experiments, divided into 3 groups of 3 animals each: Both sides of the anaesthetized rat body was shaved. […] Skin samples were collected for histopathology. The change in circulating IgG levels following the administration of PMX53 are illustrated in FIG. 7. IgG levels in plasma were measured using an ELISA assay. IgM levels may also may be determined using conventional ELISA techniques. There was no suppression of IgG over the 6 hr period after burns to 15% of the rat skin surface area (n=3). […] The 6 hr period may be too short for the systemic reaction to the burns to be detectable.

granulocytes = settings: cynomolgus monkey, in vivo, po, 100 mg/kg/day
[6] = tested on: rats with full thickness skin burn; assay: Rat thermal skin burn (30%): bronchoalveolar lavage cell number and lung myeloperoxidase; type: in vivo, Female Wistar rats; settings: 10 mg/kg SC pretreatment, 4 hours after burn injury, versus untreated burned animals
Protocol: A separate series of experiments was performed in the same way to determine myeloperoxidase (MPO) levels in the lung. In this experiment the groups were as follows: Immediately after the 4 hr monitoring period following the burn the lungs were flushed with 10 ml of saline via the pulmonary artery. Bronchoalveolar lavage (BAL) fluid was collected by an irrigation of 1 ml of saline at 37° C. into the lung once through the trachea and the total number of cells present in the lavage fluid was determined. Approximately 50% of the left lung was weighed, then homogenized in 1 ml solution of 0.05% sodium azide in 0.1M PBS (pH 6.4), and then sonicated and centrifuged. The MPO levels in the supernatants of lungs were determined using a tissue MPO assay, and the results were calculated as absorbance/tissue weight (g). Samples of affected skin, lung, liver and kidney were collected for histopathology.

[7] = in vivo

concentration of PMX53 incubated with Acticoat dressing compared to control PMX53 solution [1]: did not change
changes at the surface of Acticoat dressing segments (scanning electron microscopy) ([2]; 7 days incubation with PMX53, magnification of 2000): no apparent changes
factor of increase in leaching of silver ions from Acticoat dressing ([2]; PMX53 1 mM, after 1 day of incubation at 37° C.): 2.5
T-cell dependent antigen responses [3]: did not attenuate or increase
phagocytosis or oxidative burst functions of granulocytes (granulocytes): did not detectably impair
penetration through normal rat skin [7]: 0.16 %/cm^2
systemic level of the drug after topical administration compared with other routes ([7]; rat): lower systemic level
SMILES: CC(=O)N[C@@H](Cc1ccccc1)C(=O)N[C@H]1CCCNC(=O)[C@H](CCCNC(=N)N)NC(=O)[C@H](Cc2c[nH]c3ccccc23)NC(=O)[C@@H](CC2CCCCC2)NC(=O)[C@@H]2CCCN2C1=O [PMX53, AcPhe[Orn-Pro-D-Cyclohexylalanine-Trp-Arg]]
degree of EB infiltration in the subcutaneous tissues ([4]; 10 mg/kg SC 30 minutes before burn, 4 hours after burning, drug-treated versus untreated burned rats): no appreciable difference
leakage of Evans Blue (plasma) into burnt skin, blue staining and thickening ([4]; 10 mg/kg SC 30 minutes before burn, compared to burn-only group): less blue staining and less thickening; also recorded: markedly less plasma leakage into the skin
macroscopic appearance of the lung (EB staining, consolidation) ([4]; 10 mg/kg SC pretreatment, 4 hours after burn): colour and texture similar to those of the normal lungs; also recorded: appear normal
neutrophil recruitment in burned skin (histology) [5]: less neutrophil recruitment
structural damage of burned skin (histology) [5]: same structural damage as burned skin
total number of cells in bronchoalveolar lavage fluid [6]: cell numbers approaching those found in the sham-operated, unburned animals
total number of cells in bronchoalveolar lavage fluid ([6]; listed as PMX35): dramatically less
